# Patent US20230116196A1, “METHOD OF TREATING CNS DISORDERS WITH NEU[…] GABAERGIC COMPOUNDS” (priority 2017, published 2023)
# How the values were obtained:
# [1] = test system: dentate gyrus granule cells (DGGCs); format: cell-based, mouse; conditions: protocol as FIG. 3
# Description: Brain slices were prepared from 3- to 5-week-old male C57 mice. Mice were anesthetized with isoflurane, decapitated, and brains were rapidly removed and submerged in ice-cold cutting solution containing (mM): 126 NaCl, 2.5 KCl, 0.5 CaCl2, 2 MgCl2, 26 NaHCO3, 1.25 NaH2PO4, 10 glucose, 1.5 sodium pyruvate, and 3 kynurenic acid. Coronal 310 μm thick slices were cut with the vibratome VT1000S (Leica Microsystems, St Louis, Mo., USA). The slices were then transferred into incubation chamber filled with prewarmed (31-32° C.) oxygenated artificial cerebro-spinal fluid (ACSF) of the following composition (in mM): 126 NaCl, 2.5 KCl, 2 CaCl2, 2 MgCl2, 26 NaHCO3, 1.25 NaH2PO4, 10 glucose, 1.5 sodium pyruvate, 1 glutamine, 3 kynurenic acid and 0.005 GABA bubbled with 95% O2-5% CO2. Slices were allowed to recover at 32° C. for at least 1 hr before recording. Exogenous GABA was added in an attempt to standardize ambient GABA in the slice and provide an agonist source for newly inserted extrasynaptic GABAARs.
# After recovery, a single slice was transferred to a submerged, dual perfusion recording chamber (Warner Instruments, Hamden, Conn., USA) on the stage of an upright microscope (Nikon FN-1) with a 40× water immersion objective equipped with DIC/IR optics. Slices were maintained at 32° C. and gravity-superfused with ACSF solution throughout experimentation and perfused at rate of 2 ml/min with oxygenated (O2/CO2 95/5%) ACSF.
# Whole-cell currents were recorded from the dentate gyrus granule cells (DGGCs) in 310-μm-thick coronal hippocampal slices. Patch pipettes (5-7MΩ) were pulled from borosilicate glass (World Precision Instruments) and filled with intracellular solution of the composition (in mM) as follows: 140 CsCl, 1 MgCl2, 0.1 EGTA, 10 HEPES, 2 Mg-ATP, 4 NaCl and 0.3 Na-GTP (pH=7.2 with CsOH). A 5 min period for stabilization after obtaining the whole-cell recording conformation (holding potential of −60 mV) was allowed before currents were recorded using an Axopatch 200B amplifier (Molecular Devices), low-pass filtered at 2 kHz, digitized at 20 kHz (Digidata 1440A; Molecular Devices), and stored for offline analysis.
# For tonic current measurements, an all-points histogram was plotted for a 10 s period before and during 100 μM picrotoxin application, once the response reached a plateau level. Recordings with unstable baselines were discarded. Fitting the histogram with a Gaussian distribution gave the mean baseline current amplitude and the difference between the amplitudes before and during picrotoxin was considered to be the tonic current. The negative section of the all-points histogram which corresponds to the inward IPSCs was not fitted with a Gaussian distribution (Kretschmannova et al., 2013; Nusser and Mody, 2002). Series resistance and whole-cell capacitance were continually monitored and compensated throughout the course of the experiment. Recordings were eliminated from data analysis if series resistance increased by >20%. Spontaneous inhibitory post-synaptic currents (sIPSCs) were analyzed using the mini-analysis software (version 5.6.4; Synaptosoft, Decatur, Ga.). Minimum threshold detection was set to 3 times the value of baseline noise signal. To assess sIPSC kinetics, the recording trace was visually inspected and only events with a stable baseline, sharp rising phase, and single peak were used to negate artifacts due to event summation. Only recordings with a minimum of 200 events fitting these criteria were analyzed. sIPSCs amplitude, and frequency from each experimental condition was pooled and expressed as mean±SEM. To measure sIPSC decay, 100 consecutive events were averaged and the decay was fitted to a double exponential and the weighted decay constant (tw) was determined. Statistical analysis was performed by using Student t-test (paired and unpaired where appropriate), where p<0.05 is considered significant.
# [2] = test system: GABAA receptor β3 subunit S408/9; experiment: Immunoblot of β3 S408/9 phosphorylation in hippocampal slices; format: cell-based, mouse; conditions: 100 nM
# Description: Asterisks represent a significant difference from control (ALLO: p<0.01, Student's t-test, n=10 slices, from 10 mice; SGE-516: p<0.05, Student's t-test, n=4 slices, from 4 mice). […] Asterisks represent a significant difference from control (ALLO: p<0.05, Student's t-test, n=8 slices; SGE-516: p<0.05, Student's t-test, n=4 slices).
# Hippocampi were dissected out of acute slices from 8 to 12 week old C57/Bl6 mice and lysed with […] including: 20 mM Tris-HCl, 150 mM NaCl, 5 mM EDTA, 10 mM NaF, 2 mM Na3VO4, 10 mM pyrophosphate, 0.1% SDS and 1% Triton after drug treatment. The β3 subunit was isolated using immunoprecipitation with β3 antibodies, after correction for protein content and the specific activity of labeling. Results were attained by SDS/PAGE followed by autoradiography (Abramian et al., 2010). For biotinylation experiments hippocampi were dissected out of acute slices from 8 to 12 week old C57/Bl6 mice and incubated in artificial cerebrospinal fluid (ACSF) described above at 30° C. for 1 h for recovery before experimentation. Slices were then placed on ice and incubated for 30 min with 1 mg/mL NHS-SS-biotin (Pierce). Excess biotin was removed by a 50 mM glycine quenching buffer, followed by washing of slices three times in ice-cold ACSF. The tissue was snap frozen on dry ice for 5 min, thawed at 4° C. and lysed. The lysates were solubilized with 2% Triton at 4° C. on a rotating wheel for 1 h. The insoluble material was removed by centrifugation, and 350-500 μg of protein lysate were incubated with NeutrAvidin beads (Pierce) for 18-24 h at 4° C. Bound material was eluted with sample buffer and subjected to SDS/PAGE and then immunoblotted with the indicated antibodies. Blots were then quantified using the CCD-based ChemiDoc XRS ? system. Antibodies against the β3 subunit and the phospho-β3 antibody were generated and verified by the laboratory of S.J.M. (Vien et al., 2015).
# Treatment of hippocampal slices with SGE-516 increased the phosphorylation of S408/9 measured using pS408/9 antibodies. To produce antibodies specific for phosphorylated S443, rabbits were injected with a synthetic peptide corresponding to residues […] of the murine α4 subunit in which the serine residue corresponding to S443 was chemically phosphorylated; […]. Hippocampal slices were treated with vehicle (Con), or SGE-516 for 20 min. Slices were immunoblotted with pS408/9, β3, or actin antibodies. The ratio of pS408/9/β3 immunoreactivity was then normalized to control slices (100%=the line).
# Hippocampal slices were treated with 100 nM ALLO or P4 (progesterone), and S408/9 phosphorylation was then determined as detailed above, n=4 slices (FIG. 18D). Hippocampal slices were treated with 100 nM ORG (FIG. 18E). S408/9 phosphorylation was examined using immunoblotting. […]
# [3] = test system: GT1-7 cells; experiment: Patch-clamp of GABA-induced currents (IGABA) in GT1-7 cells; format: cell-based; conditions: 100 nM in electrolyte, GABA EC20, 20 min time course
# Description: Patch-clamp recordings were made from GT1-7 cells. The magnitude of the GABA-induced currents (IGABA) at EC20 agonists concentration were then measured, in the presence of control electrolyte or that supplemented with 100 nM ALLO, or 100 nM ORG OD 02-0 over a time course of 20 min.
# [4] = test system: GABAARs composed of α4β3 subunits; experiment: Acute modulation of IGABA in HEK-293 expressing GABAARs; format: cell-based; conditions: 100 mM (so in the source), rapidly applied with GABA
# [5] = test system: GT1-7 cells; experiment: Immunoblot of β3 S408/9 phosphorylation in GT1-7 cells; format: cell-based; conditions: 100 nM, 15 min
# Description: GT1-7 cells that co-express mPRα and GABAARs were used to measure the level of phosphorylation at S408/9 position of β3 subunit. […] Expression of mPRα was confirmed using western blotting.
# GT1-7 cells were treated with 100 nM AllO or P4 for 15 min and immunoblotted with antibodies specifically recognizing β3, actin, and […] β3 subunit (pS408/9). The ratio of pS408/9 β3 subunit immunoreactivity were then normalized to levels seen in vehicle treated to controls, n=6.
# [6] = test system: dentate gyrus granule cells (DGGCs); conditions: Abramian et al., 2010, 2014; cited from earlier work
# [7] = target: T1, α4β3δ GABAA receptors (Homo sapiens, UniProt O14764+P28472+P48169); experiment: Whole-cell patch clamp: potentiation of GABA EC20 currents at recombinant α4β3δ GABAA receptors; format: cell-based; conditions: data not shown
# T1 construct: expressed in transfected cells; host or cells: CHO cells, transiently transfected (Lipofectamine)
# Description: Cellular electrophysiology was used to measure the pharmacological properties of ALLO, ganaxolone and SGE-516 in heterologous cell systems. Compounds were tested for their ability to affect GABA mediated currents at a submaximal agonist dose (GABA EC20=2 μM).
# LTK cells were stably transfected with the α1β2γ2 subunits of the GABA receptor and CHO cells are transiently transfected with the α4β3γ subunits via the Lipofecatamine method. Cells were passaged at a confluence of about 50-80% and then seeded onto 35 mm sterile culture dishes containing 2 ml culture complete medium without antibiotics or antimycotics. Cells were cultivated at a density that enabled the recording of single cells without visible connections to other cells.
# Whole-cell currents were measured with HEKA EPC-10 amplifiers using PatchMaster software. Bath solution for all experiments contained (in mM): NaCl 137, KCl 4, CaCl2 1.8, MgCl2 1, HEPES 10, D-Glucose 10, pH 7.4 with NaOH. Intracellular (pipette) solution contained (in mM): KCl 130, MgCl2 1, Mg-ATP 5, HEPES 10, EGTA 5, pH 7.2 with KOH. During experiments, cells and solutions were maintained at room temperature (19° C.-30° C.). For manual patchclamp recordings, cell culture dishes were placed on the dish holder of the microscope and continuously perfused (1 ml/min) with bath solution. After formation of a Gigaohm seal between the patch electrode and the cell (pipette resistance range: 2.5 MΩ-6.0MΩ; seal resistance range: >1 GΩ) the cell membrane across the pipette tip was ruptured to assure electrical access to the cell interior (whole-cell patch configuration).
# Cells were voltage-clamped at a holding potential of −80 mV. GABAA receptors were activated by 2 μM GABA and compounds were sequentially applied at increasing concentrations for 30 s prior to a 2 s application of GABA. GABA and compounds were applied to cells via the Dynaflow perfusion system (Cellectricon, Sweden). Test compounds were dissolved in DMSO to form 10 mM stock solution and serially diluted to 0.01, 0.1, 1, and 10 μM in bath solution. There was no effect on GABA currents when DMSO was applied to cells at its maximal concentration in solution (0.1%). All concentrations of test compound were tested on each cell. The relative percentage potentiation was defined as the peak amplitude in response to GABA EC20 in the presence of test compound divided by the peak amplitude in response to GABA EC20 alone, multiplied by 100.
# ALLO and ganaxolone are known PAMs of both synaptic and extrasynaptic GABAAR-mediated currents. The ability of candidate compound SGE-516 to act as a PAM was compared to ALLO and ganaxolone using the whole-cell recordings of recombinant human GABAA receptors expressed in mammalian cells. The α1β2γ2 or α4β3δ subunit combinations were chosen as representatives of typical synaptic and extrasynaptic GABAA receptors respectively. Similar to previous reports (Botella et al., 2015), ALLO, ganaxolone and SGE-516 allosterically potentiated currents induced by EC20 concentration of GABA in a concentration-dependent manner in both synaptic- and extrasynaptic-type GABAARs.
# T1 sequence (P48169 36-554): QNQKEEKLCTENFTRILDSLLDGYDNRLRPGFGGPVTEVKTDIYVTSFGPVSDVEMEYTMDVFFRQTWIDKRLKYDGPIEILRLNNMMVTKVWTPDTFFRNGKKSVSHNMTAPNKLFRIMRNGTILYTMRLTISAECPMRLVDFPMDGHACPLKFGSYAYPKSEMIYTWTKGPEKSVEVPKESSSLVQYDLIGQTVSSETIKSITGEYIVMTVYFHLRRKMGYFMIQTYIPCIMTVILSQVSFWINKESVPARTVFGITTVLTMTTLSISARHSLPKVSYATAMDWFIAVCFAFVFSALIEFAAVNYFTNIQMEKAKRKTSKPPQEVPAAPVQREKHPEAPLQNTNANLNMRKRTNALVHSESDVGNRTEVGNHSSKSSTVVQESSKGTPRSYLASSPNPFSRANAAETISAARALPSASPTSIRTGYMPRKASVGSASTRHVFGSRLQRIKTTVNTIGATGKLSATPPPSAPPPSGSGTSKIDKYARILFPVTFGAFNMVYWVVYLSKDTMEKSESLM
# T1 sequence (P28472 26-473): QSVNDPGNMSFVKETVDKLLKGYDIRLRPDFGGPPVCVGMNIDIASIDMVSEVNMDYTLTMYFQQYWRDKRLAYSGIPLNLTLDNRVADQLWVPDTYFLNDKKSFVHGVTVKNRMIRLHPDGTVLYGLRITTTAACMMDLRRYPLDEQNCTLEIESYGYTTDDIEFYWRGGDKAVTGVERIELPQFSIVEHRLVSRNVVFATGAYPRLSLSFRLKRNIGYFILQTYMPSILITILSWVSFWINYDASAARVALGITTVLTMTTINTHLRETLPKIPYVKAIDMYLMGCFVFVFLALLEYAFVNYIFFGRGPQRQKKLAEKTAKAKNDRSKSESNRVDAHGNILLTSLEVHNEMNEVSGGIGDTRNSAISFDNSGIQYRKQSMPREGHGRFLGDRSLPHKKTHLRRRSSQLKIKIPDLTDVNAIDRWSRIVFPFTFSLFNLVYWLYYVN
# T1 sequence (O14764 25-452): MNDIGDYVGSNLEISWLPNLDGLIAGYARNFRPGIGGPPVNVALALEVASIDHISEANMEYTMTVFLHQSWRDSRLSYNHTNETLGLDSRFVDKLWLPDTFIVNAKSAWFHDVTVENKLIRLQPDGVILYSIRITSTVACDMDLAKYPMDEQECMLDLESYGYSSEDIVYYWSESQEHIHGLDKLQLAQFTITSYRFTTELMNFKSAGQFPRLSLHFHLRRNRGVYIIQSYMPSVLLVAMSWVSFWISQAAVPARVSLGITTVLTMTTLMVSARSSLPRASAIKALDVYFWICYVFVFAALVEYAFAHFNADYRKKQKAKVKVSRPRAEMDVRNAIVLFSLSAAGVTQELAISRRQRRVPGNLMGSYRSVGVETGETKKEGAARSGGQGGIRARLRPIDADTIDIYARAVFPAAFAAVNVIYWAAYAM
smiles,measurement,setting,value
C=C[C@]12CCC(=O)C=C1CCC1C2CC[C@@]2(C)C1CC[C@@H]2C(C)=O (stereo partly drawn) [ORG OD 02-0],"amplitude and density of GABAergic tonic current, varying doses",[1],dosage-dependent effect
same,S408/9 phosphorylation in hippocampal slices (FIG. 18),[2],regulated
same,GABA-evoked currents recorded from GT1-7 cells,[3],sustained increases
same,acute modulation of function of GABAARs composed of α4β3 subunits,[4],did not acutely modulate
"CC(=O)[C@H]1CC[C@H]2[C@@H]3CCC4=CC(=O)CC[C@]4(C)[C@H]3CC[C@]12C [P4, Progesterone]","amplitude and density of GABAergic tonic current, varying doses",[1],dosage-dependent effect
same,S408/9 phosphorylation in hippocampal slices (FIG. 18),[2],regulated
same,S408/9 phosphorylation in GT1-7 cells,[5],increase
"C[C@]12CC[C@@H](O)C[C@H]1CC[C@@H]1[C@@H]2CC[C@]2(C)[C@@H](C(=O)CO)CC[C@@H]12 [THDOC, Tetrahydrodeoxycorticosterone]",sustained effect on GABAergic tonic current,[6],long lasting increase
CN1C(=O)CN=C(c2ccccc2)c2cc(Cl)ccc21 [diazepam],effect on GABA evoked currents in α4β3δ receptors,[7],did not alter
